Results published in patent US5244905A, “N-substituted cycloalkyl and polycycloalkyl polyhydro-β-carboline-phenylalanine- and phenethylamine derivatives” (Warner-Lambert Company, priority 1991, dated 1993).

Test system: nucleus accumbens
Experiment: Locomotor activity after intra-accumbens amphetamine
Format: in vivo, rat (male Sprague Dawley (CD) Bradford)
Settings: bilateral injection 20 μg into nucleus accumbens
Protocol: The compounds of the instant invention are useful as antipsychotic agents. Compounds are tested for their ability to reduce the effects of intra-accumbens amphetamine in the rat as described hereinafter.
Male Sprague Dawley (CD) Bradford strain rats are used. The rats are housed in groups of five at a temperature of 21°±2° C. on a 12 hour light-dark cycle of lights-on between 07 hours 00 minutes and 20 hours 00 minutes. Rats are fed CRM diet (Labsure) and allowed water ad libitum.
Rats are anesthetized with chloral hydrate (400 mg/kg SC) and placed in a Kopf stereotaxic frame. Chronically indwelling guide cannulae (constructedof stainless steel tubing 0.65 mm diameter held bilaterally in Parspex holders) are implanted using standard stereotaxic techniques to terminate 3.5 mm above the center of the nucleus accumbens (Ant. 0.4, Vert. 0.0, Lat. 1.6) or 5.0 mm above the central nucleus of the amygdala (Ant. 5.8, Vet. -1.8, Lat. ±4.5) (Atlas of De Groot, 1959). […]
Behavioral experiments are conducted between 07 hours 30 minutes and 21 hours 30 minutes in a quiet room maintained at 22°±2° C. […] Interruptions of the light beam are recorded every 5 minutes. […]
The abilities of the compounds of the invention to inhibit the hyperactivity caused by the injection of amphetamine into the nucleus accumbens of the rat is measured.

With `CC(N)Cc1ccccc1` (stereo not shown) [amphetamine] the locomotor activity was “increase in locomotor activity”.
